Source: US8906925B2, “Pyrido[4,3-B]indoles containing rigid moieties” (Medivation Technologies, Inc., priority 2008, dated 2014)

Columns and labels:
[1] = target: histamine receptor H1 (Homo sapiens, UniProt P35367); test: Histamine H1 radioligand binding ([3H]Pyrilamine); details: read-out: Histamine Binding (1 μM) H1, percent inhibition of specific binding, 1 μM
Procedure: To evaluate in radioligand binding assays the activity of compounds of the invention, human recombinant histamine H1 receptor expressed in Chinese hamster ovary (CHO) cells (De Backer, M. D. et al., Biochem. Biophys. Res. Comm. 197(3):1601, 1993) in a modified Tris-HCl buffer (50 mM Tris-HCl, pH 7.4, 2 mM MgCl2, 100 mM NaCl, 250 mM Sucrose) was used. Compounds of the invention were incubated with 1.2 nM [^3H]Pyrilamine for 180 min. at 25° C. Non-specific binding was estimated in the presence of 1 μM pyrilamine. Receptor proteins were filtered and washed, the filters were then counted to determine [^3H]Pyrilamine specifically bound. Compounds were screened at 1 μM or lower, using 1% DMSO as vehicle. Biochemical assay results are presented as the percent inhibition of specific binding in Table 8.

[2] = target: human dopamine D2L receptor (Homo sapiens, UniProt P14416); test: Dopamine D2L radioligand binding ([3H]Spiperone); details: compound at 1 μM; […] [3H]Spiperone; read-out: Inhibition of ligand binding, Dopamine D2L (percent inhibition of specific binding)
Excerpt: Non-specific binding was estimated in the presence of […] Haloperidol. Receptor proteins were filtered and washed, the filters were then counted to determine [^3H]Spiperone specifically bound. […] Biochemical assay results are presented as the percent inhibition of specific binding in Table 9.

Sequence of human dopamine D2L receptor (P14416 whole entry): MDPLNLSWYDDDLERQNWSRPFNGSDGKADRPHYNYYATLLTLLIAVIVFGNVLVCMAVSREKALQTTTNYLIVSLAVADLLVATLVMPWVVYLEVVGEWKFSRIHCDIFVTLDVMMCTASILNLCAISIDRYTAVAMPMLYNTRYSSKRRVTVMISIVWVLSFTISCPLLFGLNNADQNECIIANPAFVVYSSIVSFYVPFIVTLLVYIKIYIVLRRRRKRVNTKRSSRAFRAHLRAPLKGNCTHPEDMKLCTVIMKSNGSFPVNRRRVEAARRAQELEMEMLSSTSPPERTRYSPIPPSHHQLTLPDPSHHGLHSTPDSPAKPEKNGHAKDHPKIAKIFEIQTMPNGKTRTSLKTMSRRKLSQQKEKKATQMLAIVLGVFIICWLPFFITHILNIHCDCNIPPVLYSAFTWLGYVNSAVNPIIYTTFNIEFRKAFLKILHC
Sequence of histamine receptor H1 (P35367 whole entry): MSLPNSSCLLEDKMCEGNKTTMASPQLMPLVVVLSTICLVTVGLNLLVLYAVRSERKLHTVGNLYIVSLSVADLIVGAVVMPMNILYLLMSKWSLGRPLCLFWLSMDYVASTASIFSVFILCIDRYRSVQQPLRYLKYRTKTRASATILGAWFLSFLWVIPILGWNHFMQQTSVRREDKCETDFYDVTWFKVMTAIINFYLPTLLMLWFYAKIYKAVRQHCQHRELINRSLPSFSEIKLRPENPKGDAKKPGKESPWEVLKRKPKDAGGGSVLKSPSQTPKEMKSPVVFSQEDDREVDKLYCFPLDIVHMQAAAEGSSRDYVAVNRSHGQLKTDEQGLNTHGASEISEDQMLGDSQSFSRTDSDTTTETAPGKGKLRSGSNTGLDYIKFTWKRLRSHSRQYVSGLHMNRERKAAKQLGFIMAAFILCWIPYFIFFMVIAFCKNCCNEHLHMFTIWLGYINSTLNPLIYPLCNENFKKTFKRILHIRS

inhibition at 1 µM [1] | inhibition at 1 µM [2] | Structure (SMILES)
96% | 51% | C/C=C(/Cn1c2c(c3cc(C)ccc31)CN(C)CC2)c1ccncc1 [Compound No. 361, (E)-2,8-dimethyl-5-(2-(pyridin-4-yl)but-2-enyl)-2,3,4,5-tetrahydro-1H-pyrido[4,3-b]indole]
98% | 79% | C/C=C(/Cn1c2c(c3cc(Cl)ccc31)CN(C)CC2)c1ccncc1 [Compound No. 362, (E)-8-chloro-2-methyl-5-(2-(pyridin-4-yl)but-2-enyl)-2,3,4,5-tetrahydro-1H-pyrido[4,3-b]indole]
62% | 53% | C=C(Cn1c2c(c3cccc(F)c31)CN(C)CC2)c1ccncc1 [Compound No. 363, 6-fluoro-2-methyl-5-(2-(pyridin-4-yl)allyl)-2,3,4,5-tetrahydro-1H-pyrido[4,3-b]indole]
95% | 27% | C=C(Cn1c2c(c3cc(C)ccc31)CN(C)CC2)c1cnccn1 [Compound No. 364, 2,8-dimethyl-5-(2-(pyrazin-2-yl)allyl)-2,3,4,5-tetrahydro-1H-pyrido[4,3-b]indole]
56% | 15% | C/C(=C/n1c2c(c3cc(C)ccc31)CN(C)CC2)c1cccc(C(=O)N(C)C)c1 [Compound No. 458, (Z)-3-(1-(2,8-dimethyl-3,4-dihydro-1H-pyrido[4,3-b]indol-5(2H)-yl)prop-1-en-2-yl)-N,N-dimethylbenzamide]
53% | 71% | CSc1ccc(/C(C)=C/n2c3c(c4cc(C)ccc42)CN(C)CC3)cc1 [Compound No. 459, (E)-2,8-dimethyl-5-(2-(4-(methylthio)phenyl)prop-1-enyl)-2,3,4,5-tetrahydro-1H-pyrido[4,3-b]indole]
17% | 67% | CN1CCc2c(c3cc(Cl)ccc3n2/C=C(\c2ccccc2)c2ccncc2)C1 [Compound No. 460, (E)-8-chloro-2-methyl-5-(2-phenyl-2-(pyridin-4-yl)vinyl)-2,3,4,5-tetrahydro-1H-pyrido[4,3-b]indole]
31% | 78% | CN1CCc2c(c3cc(Cl)ccc3n2/C=C(/c2ccccc2)c2ccncc2)C1 [Compound No. 461, (Z)-8-chloro-2-methyl-5-(2-phenyl-2-(pyridin-4-yl)vinyl)-2,3,4,5-tetrahydro-1H-pyrido[4,3-b]indole]
32% | 76% | C/C(=C\n1c2c(c3cc(C)ccc31)CN(C)CC2)c1ccc(S(C)(=O)=O)cc1 [Compound No. 462, (E)-2,8-dimethyl-5-(2-(4-(methylsulfonyl)phenyl)prop-1-enyl)-2,3,4,5-tetrahydro-1H-pyrido[4,3-b]indole]
66% | 93% | CC(O)(Cn1c2c(c3cc(Cl)ccc31)CN(CCCC(=O)c1ccc(F)cc1)CC2)c1ccncc1 (centres unmarked) [Compound No. 464, 4-(8-chloro-5-(2-hydroxy-2-(pyridin-4-yl)propyl)-3,4-dihydro-1H-pyrido[4,3-b]indol-2(5H)-yl)-1-(4-fluorophenyl)butan-1-one]
-14% | 21% | Cc1ccc2c(c1)c1c(n2CC(O)(c2ccccc2)c2ccccc2)CCN(C)C1 [Compound No. 465, 2-(2,8-dimethyl-3,4-dihydro-1H-pyrido[4,3-b]indol-5(2H)-yl)-1,1-diphenylethanol]
10% | 54% | CN1CCc2c(c3cc(Cl)ccc3n2CC(O)(c2ccccc2)c2ccccc2)C1 [Compound No. 466, 2-(8-chloro-2-methyl-3,4-dihydro-1H-pyrido[4,3-b]indol-5(2H)-yl)-1,1-diphenylethanol]
54% | 7% | Cc1ccc2c(c1)c1c(n2C(C)(C)C(O)c2ccccc2)CCN(C)C1 (centres unmarked) [Compound No. 467, 2-(2,8-dimethyl-3,4-dihydro-1H-pyrido[4,3-b]indol-5(2H)-yl)-2-methyl-1-phenylpropan-1-ol]
82% | 12% | Cc1ccc2c(c1)c1c(n2C(C)C(O)c2ccccc2)CCN(C)C1 (centres unmarked) [Compound No. 468, 2-(2,8-dimethyl-3,4-dihydro-1H-pyrido[4,3-b]indol-5(2H)-yl)-1-phenylpropan-1-ol]
2% | 2% | C/C(=C\n1c2c(c3cc(C)ccc31)CNCC2)c1cc[n+](C)cc1 [Compound No. 471, (E)-1-methyl-4-(1-(8-methyl-3,4-dihydro-1H-pyrido[4,3-b]indol-5(2H)-yl)prop-1-en-2-yl)pyridinium]
21% | 53% | CNC(=O)c1cccc(/C(C)=C/n2c3c(c4cc(C)ccc42)CN(C)CC3)c1 [Compound No. 472, (E)-3-(1-(2,8-dimethyl-3,4-dihydro-1H-pyrido[4,3-b]indol-5(2H)-yl)prop-1-en-2-yl)-N-methylbenzamide]

inhibition at 1 µM [1] | inhibition at 1 µM [2] | Structure (SMILES)
35% | 59% | C/C(=C\n1c2c(c3cc(C)ccc31)CN(C)CC2)c1cccc(S(C)(=O)=O)c1 [Compound No. 473, (E)-2,8-dimethyl-5-(2-(3-(methylsulfonyl)phenyl)prop-1-enyl)-2,3,4,5-tetrahydro-1H-pyrido[4,3-b]indole]
98% | 53% | CSc1cccc(/C(C)=C/n2c3c(c4cc(C)ccc42)CN(C)CC3)c1 [Compound No. 474, (E)-2,8-dimethyl-5-(2-(3-(methylthio)phenyl)prop-1-enyl)-2,3,4,5-tetrahydro-1H-pyrido[4,3-b]indole]
22% | 14% | CN1CCc2c(c3cc(Cl)ccc3n2C#Cc2ccc(C(F)(F)F)nc2)C1 [Compound No. 486, 8-chloro-2-methyl-5-((6-(trifluoromethyl)pyridin-3-yl)ethynyl)-2,3,4,5-tetrahydro-1H-pyrido[4,3-b]indole]
75% | 17% | CCCc1ccc(C#Cn2c3c(c4cc(Cl)ccc42)CN(C)CC3)cn1 [Compound No. 487, 8-chloro-2-methyl-5-((6-propylpyridin-3-yl)ethynyl)-2,3,4,5-tetrahydro-1H-pyrido[4,3-b]indole]
9% | 19% | CNC(=O)c1ccc(C#Cn2c3c(c4cc(C)ccc42)CN(C)CC3)cc1F [Compound No. 488, 4-((2,8-dimethyl-3,4-dihydro-1H-pyrido[4,3-b]indol-5(2H)-yl)ethynyl)-2-fluoro-N-methylbenzamide]
13% | 9% | Cc1ccc2c(c1)c1c(n2C#Cc2cccc(N(C)C)c2)CCN(C)C1 [Compound No. 489, 3-((2,8-dimethyl-3,4-dihydro-1H-pyrido[4,3-b]indol-5(2H)-vyl)ethynyl)-N,N-dimethylaniline]
18% | 74% | Cc1ccc2c(c1)c1c(n2C#Cc2ccccc2)CCN(C)C1 [Compound No. 490, 2,8-dimethyl-5-(phenylethynyl)-2,3,4,5-tetrahydro-1H-pyrido[4,3-b]indole]
52% | 82% | Cc1ccc2c(c1)c1c(n2C#Cc2ccsc2)CCN(C)C1 [Compound No. 491, 2,8-dimethyl-5-(thiophen-3-ylethynyl)-2,3,4,5-tetrahydro-1H-pyrido[4,3-b]indole]
68% | 60% | Cc1ccc2c(c1)c1c(n2C#Cc2ccoc2)CCN(C)C1 [Compound No. 492, 5-(furan-3-ylethynyl)-2,8-dimethyl-2,3,4,5-tetrahydro-1H-pyrido[4,3-b]indole]
69% | 56% | Cc1ccc2c(c1)c1c(n2C#Cc2cccs2)CCN(C)C1 [Compound No. 493, 2,8-dimethyl-5-(thiophen-2-ylethynyl)-2,3,4,5-tetrahydro-1H-pyrido[4,3-b]indole]
2% | 13% | COc1ccc(C#Cn2c3c(c4cc(C)ccc42)CN(C)CC3)cn1 [Compound No. 494, 5-((6-methoxypyridin-3-yl)ethynyl)-2,8-dimethyl-2,3,4,5-tetrahydro-1H-pyrido[4,3-b]indole]
52% | 58% | Cc1ccc2c(c1)c1c(n2C#Cc2ccncc2)CCN(C)C1 [Compound No. 495, 2,8-dimethyl-5-(pyridin-4-ylethynyl)-2,3,4,5-tetrahydro-1H-pyrido[4,3-b]indole]
15% | 25% | Cc1ccc2c(c1)c1c(n2C#Cc2ccc(C3CC3)nc2)CCN(C)C1 [Compound No. 496, 5-((6-cyclopropylpyridin-3-yl)ethynyl)-2,8-dimethyl-2,3,4,5-tetrahydro-1H-pyrido[4,3-b]indole]
17% | 14% | Cc1ccc2c(c1)c1c(n2C#Cc2cncn2C)CCN(C)C1 [Compound No. 497, 2,8-dimethyl-5-((1-methyl-1H-imidazol-5-yl)ethynyl)-2,3,4,5-tetrahydro-1H-pyrido[4,3-b]indole]
65% | 9% | Cc1ccc2c(c1)c1c(n2C#Cc2cscn2)CCN(C)C1 [Compound No. 498, 4-((2,8-dimethyl-3,4-dihydro-1H-pyrido[4,3-b]indol-5(2H)-vyl)ethynyl)thiazole]
